From the NIST ThermoML archive (doi:10.1021/je0496140)

Tests used:
[1] = 101.33 kPa, Liquid
[2] = xn = mol fraction of the nth substance listed; conditions: 101.33 kPa, Liquid

CC(C)(C)O [2-methylpropan-2-ol]
[1]
Conditions	mass density [kg/m3]	viscosity [mPa·s]
298.15 K	779.96	4.433
303.15 K	775.3	3.355
308.15 K	770.19	2.611
313.15 K	764.83	2.074
318.15 K	759.52	1.685

CCCCO [butan-1-ol]
[1]
Conditions	mass density [kg/m3]	viscosity [mPa·s]
288.15 K	813.42	3.346
298.15 K	805.4	2.56
308.15 K	798.14	1.991
318.15 K	790.19	1.569

CCCCCl [1-chlorobutane] + CCC(C)O
[2]
Conditions	mass density [kg/m3]	viscosity [mPa·s]
288.15 K, x2 = 0.05	887.1	–
288.15 K, x2 = 0.0965	–	0.496
288.15 K, x2 = 0.1177	881.38	–
288.15 K, x2 = 0.1435	879.24	–
288.15 K, x2 = 0.1962	874.99	–
288.15 K, x2 = 0.1973	–	0.542
288.15 K, x2 = 0.2227	872.88	–
288.15 K, x2 = 0.2962	–	0.601
288.15 K, x2 = 0.34	863.63	–
288.15 K, x2 = 0.3934	–	0.688
288.15 K, x2 = 0.4058	858.45	–
288.15 K, x2 = 0.4104	858.09	–
288.15 K, x2 = 0.4917	–	0.805
288.15 K, x2 = 0.4986	851.12	–
288.15 K, x2 = 0.5241	849.12	–
288.15 K, x2 = 0.5527	846.87	–
288.15 K, x2 = 0.5923	–	0.995
288.15 K, x2 = 0.6114	842.23	–
288.15 K, x2 = 0.6634	838.14	–
288.15 K, x2 = 0.6919	–	1.286
288.15 K, x2 = 0.7388	832.24	–
288.15 K, x2 = 0.7931	–	1.764
288.15 K, x2 = 0.7984	827.45	–
288.15 K, x2 = 0.8286	824.99	–
288.15 K, x2 = 0.884	820.5	–
288.15 K, x2 = 0.8933	–	2.648
288.15 K, x2 = 0.9367	816.07	–
298.15 K, x2 = 0.0965	–	0.444
298.15 K, x2 = 0.1973	–	0.478
298.15 K, x2 = 0.2962	–	0.524
298.15 K, x2 = 0.3934	–	0.587
298.15 K, x2 = 0.4917	–	0.675
298.15 K, x2 = 0.5923	–	0.811
298.15 K, x2 = 0.6919	–	1.011
298.15 K, x2 = 0.7931	–	1.334
298.15 K, x2 = 0.8933	–	1.901
308.15 K, x2 = 0.0965	–	0.399
308.15 K, x2 = 0.1007	860.49	–
308.15 K, x2 = 0.1941	853.08	–
308.15 K, x2 = 0.1973	–	0.426
308.15 K, x2 = 0.2775	846.72	–
308.15 K, x2 = 0.2962	–	0.462
308.15 K, x2 = 0.3881	838.47	–
308.15 K, x2 = 0.3934	–	0.51
308.15 K, x2 = 0.4876	831.15	–
308.15 K, x2 = 0.4917	–	0.577
308.15 K, x2 = 0.5897	823.73	–
308.15 K, x2 = 0.5923	–	0.676
308.15 K, x2 = 0.6919	–	0.818
308.15 K, x2 = 0.6927	816.37	–
308.15 K, x2 = 0.7931	–	1.034
308.15 K, x2 = 0.795	808.99	–
308.15 K, x2 = 0.8933	–	1.419
308.15 K, x2 = 0.8963	801.67	–
318.15 K, x2 = 0.0864	850.35	–
318.15 K, x2 = 0.0965	–	0.362
318.15 K, x2 = 0.1906	842.1	–
318.15 K, x2 = 0.1973	–	0.382
318.15 K, x2 = 0.2732	835.88	–
318.15 K, x2 = 0.2962	–	0.41
318.15 K, x2 = 0.382	828	–
318.15 K, x2 = 0.3934	–	0.45
318.15 K, x2 = 0.4862	820.61	–
318.15 K, x2 = 0.4917	–	0.498
318.15 K, x2 = 0.5852	813.65	–
318.15 K, x2 = 0.5923	–	0.571
318.15 K, x2 = 0.6823	806.95	–
318.15 K, x2 = 0.6919	–	0.676
318.15 K, x2 = 0.7865	799.78	–
318.15 K, x2 = 0.7931	–	0.825
318.15 K, x2 = 0.8928	792.59	–
318.15 K, x2 = 0.8933	–	1.072

CCC(C)O (stereo not drawn) [butan-2-ol]
[1]
Conditions	mass density [kg/m3]	viscosity [mPa·s]
288.15 K	810.72	4.509
298.15 K	801.82	3.035
308.15 K	794.07	2.111
318.15 K	785.15	1.523
